Results taken from paper PMC9952466, “Characterization of Antioxidant and α-Glucosidase Inhibitory Compounds of Cratoxylum formosum ssp. pruniflorum and Optimization of Extraction Condition” (Antioxidants, 2023).

Assays:
[1] = system: α-glucosidase from Saccharomyces cerevisiae (EC 3.2.1.20); experiment: α-glucosidase inhibitory effect (p-nitrophenyl α-D-glucopyranoside, absorbance 405 nm); format: biochemical
Experimental: (§1) The inhibitory effect on α-glucosidase was measured using α-glucosidase from Saccharomyces cerevisiae (EC 3.2.1.20). A test sample was mixed with 80 μL enzyme buffer and 10 μL α-glucosidase and incubated for 15 min at 37 °C. Then, after the addition of 10 μL p-nitrophenyl α-D-glucopyranoside solution for enzyme reaction, the amount of p-nitrophenol that was cleaved by the enzyme was determined by measuring the absorbance at 405 nm in a 96-well microplate reader. Acarbose was used as a positive control. The antioxidant activity was evaluated by measuring the DPPH radical scavenging activity using ascorbic acid as a positive control.

[2] = antioxidant activity by DPPH radical scavenging; conditions: for DPPH radical scavenging activity: at 50 μM; for antioxidant activity (in words): DPPH radical scavenging
Experimental: as §1

| α-glucosidase inhibitory activity (in words) [1] | Compound | DPPH radical scavenging activity [2] | antioxidant activity (in words) [2] |
| --- | --- | --- | --- |
| reduced the efficacy | CC(C)=CCc1c(O)c(O)cc2c(=O)c3c(O)cc(O)cc3oc12 [Compound 1, cochinchinone F] | – | – |
| – | CC(C)=CCc1c(O)cc2oc3cc(O)c(O)c(CC=C(C)C)c3c(=O)c2c1O [Compound 6, γ-mangostin] | more than 50% | – |
| – | CC(C)=CCc1c(O)c(O)c(C/C=C(\C)CCCC(C)(C)O)c2oc3ccc(O)cc3c(=O)c12 [Compound 16, pruniflonone A] | – | weak efficacy |
| – | COc1cc2c(=O)c3c(O)c(O)c(O)cc3oc2cc1O [Compound 17, caloxanthone E] | more than 50% | – |
| – | O=c1c2cc(O)c(O)cc2oc2cc(O)c([C@@H]3O[C@H](CO)[C@@H](O)[C@H](O)[C@H]3O)c(O)c12 [Compound 18, mangiferin] | more than 50% | – |
| weak effect | O=C(c1ccccc1)c1cc(O)c(O)c(OC2OC(CO)C(O)C(O)C2O)c1 (stereo not drawn) [Compound 19, pruniflonone B] | – | weak effect |
| good inhibition | Oc1cc(O)c2c(c1)O[C@H](c1ccc(O)c(O)c1)[C@H](O)C2 [Compound 21, epicatechin] | – | – |
| – | isocudraniaxanthone B [Compound 3] | more than 50% | – |
